{
  "source": "paper PMC11325555",
  "about": "“Interaction of Bisphenol A and Its Analogs with Estrogen and Androgen Receptor from Atlantic Cod (Gadus morhua)” (Environmental Science & Technology, 2024)",
  "tested_on": "COS-7 cells",
  "assay": "Cytotoxicity toward COS-7 cells (resazurin and CFDA-AM assays)",
  "settings": "antiandrogenic reporter assay conditions (with testosterone); highest concentration used; 24 h",
  "from_the_text": "The cytotoxicity of the test compounds toward COS-7 cells was monitored by measuring the metabolic activity and membrane integrity through the conversion of resazurin and 5-carboxyfluorescein diacetate acetoxymethyl ester (CFDA-AM), respectively, as described previously by Pérez-Albaladejo et al.[54] […]\nused as a negative control.\nFigure S2. Assessing metabolic activity (resazurin) and cell membrane integrity (CFDA-AM) in COS-7 cells after BP exposures. COS-7 cells were exposed to three concentrations of each BP, as well as three concentrations […]\nexposed at 37 °C and 5 % CO2 for 24 hours. Cytotoxicity is indicated by a reduction in the fluorescent signal (denoted as % Cell survival) relative to the solvent control (DMSO, dotted line) adjusted to 100 %. A reduction in cell viability exceeding 20 % is generally regarded as cytotoxic (indicated with a red dotted line) (ISO, I. 2009.\n10993–5: 2009 Biological evaluation of medical devices—part 5: tests for in vitro cytotoxicity. International Organization for Standardization, Geneva.).\n(1 picture or pasted object on this page, not shown here)",
  "data": [
    {"compound": "CC(C)(c1ccc(OCC2CO2)cc1)c1ccc(OCC2CO2)cc1", "note": "(stereo not shown) [BADGE]", "values": [
      {"measurement": "cytotoxic concentration in COS-7 cells", "value": 50, "unit": "µM"}
    ]}
  ]
}
